Source: patent US20190119200A1, “TERTIARY AMIDES AND METHOD OF USE” (AbbVie Inc., priority 2016, published 2019)

How the values were obtained:
LPAR1 = molecular target: T1, LPAR1 (Homo sapiens, UniProt Q92633); test: LPAR1 FLIPR Assay; assay type: cell-based; conditions: U2OS cells stably expressing LPAR1, LPA (EC80), Calcium 6 FLIPR dye; for Emax: read-out: Maximum Inhibition
T1 construct: host or cells: U2OS
Method: U2OS cells stably expressing LPAR1 (Life Technologies #K1519A) were plated at 12000 cells/well in growth medium (McCoy's 5A medium(Life Technologies 16600-082)) with 10% dFBS (Life Technologies 26400-036), 0.1 mM non-essential amino acids, 25 mM HEPES, 1 mM sodium pyruvate, 1% penicillin/streptomycin, 50 μg/mL hygromycin, and 100 μg/mL Geneticin® in black-walled, clear-bottom 384-well plates (Corning #3683) and incubated in humidified 5% CO2 at 37° C. overnight. On the day of the assay, medium was removed and 30 μL of 5% Calcium 6 FLIPR dye in assay buffer-HBSS (Life Technologies #14025) containing 20 mM HEPES (Life Technologies #15630-080) was added to the cells. Cells were incubated at 37° C. in the dark for 2 hours. Compounds were 3-fold serial diluted from 10 mM for 11-points using dimethyl sulfoxide. 1 μL of compound in DMSO was diluted in 82.3 μL assay buffer immediately before the assay. Using a FLIPR® TETRA® system, 15 μL of the (4×) compound solutions were first added to the cells, then 15 μL of LPA (EC80) diluted in of assay buffer supplemented with 0.1% BSA was added 3 minutes later to activate the receptor. Changes in fluorescence were measured at wavelengths of 515-575 nm over the course of the experimental run. IC50 values were calculated from curve fits of the ratio data using a four-parameter logistic Hill equation (Assay Explorer 3.3 Client).

[1] = system: LPA-induced MCP-1 in NRK-49F cells; test: LPA-induced MCP-1 AlphaLISA assay; assay type: cell-based; conditions: Rattus norvegicus, final LPA 10 μM, 7 hours; for Emax: read-out: Maximum Inhibition
Method: Two days prior to the experiment, NRK-49F cells were plated at 8,000 cells/well in 100 μL of growth medium [DMEM (Life Technologies #11995) with 5% dFBS (Life Technologies #30067-334), 100 units/mL penicillin/streptomycin (Life Technologies #15140122)] in 96-well clear flat bottom polystyrene TC-treated microplate (Corning® #3599) and incubated in humidified 10% CO2 at 37° C. One day prior to the experiment, the cell medium was removed and serum free medium [100 μL/well, DMEM (Life Technologies #11995) with 0.1% fatty acid free BSA (Sigma #A6003)] was added with continued incubation in humidified 10% CO2 at 37° C. overnight. On the day of the assay, test compounds were 1:3 serially diluted in 100% DMSO using a BioTek Precision™ system and then transferred (equivalent volume of DMSO as controls) to a plate in serum free medium [DMEM with 0.1% fatty acid free BSA] using a Biomek® NX workstation to give a 2× compound solution. The cell culture medium was removed, and cells were pre-treated with 50 μL/well of 2× compound in serum free medium [DMEM with 0.1% fatty acid free BSA] at 37° C. for 30 minutes. Following the incubation, 50 μL/well of 20 μM LPA diluted in serum free medium [DMEM with 0.1% fatty acid free BSA] was added to the cells. Serum free medium [DMEM with 0.1% fatty acid free BSA] was used as substitution for low control wells while 20 µM LPA was added to high control wells and test compound wells. 200 µM LPA was added to EC100 wells. Final DMSO concentration was 1% in every well. Final LPA concentration in test compound wells and high control wells was 10 μM. […] After the incubation, cell supernatant was transferred to a new 96 well polypropylene plate (Greiner #651201) where it was sealed and stored at −80° C. On the detection day, 5 μL of thawed cell supernatant was transferred to a new white opaque 384-well microplate (Perkin Elmer #6007299). An AlphaLISA® mouse/rat CCL2/MCP1, Immunoassay Research kit (PerkinElmer #AL509F) was used. A mixture (20 μL/well) of AlphaLISA® Anti-Analyte Accept beads (10 μg/mL final) and Biotinylated Antibody Anti-Analyte (freshly prepared, 1 nM final) was added. The mixture in the wells was mixed and then incubated at room temperature for 1 hour. Then SA-Donor beads (25 μL/well, 40 μg/mL final) were added giving a final volume of 50 μL/well. The contents of the wells were mixed and then incubated at room temperature for 0.5 hour (protect from light). The plate was read using the default Envision™ Alpha protocol (PerkinElmer). IC50 values were calculated from curve fits of the ratio data using a four-parameter logistic Hill equation (Assay Explorer 3.3 Client).

T1 sequence (Q92633 whole entry): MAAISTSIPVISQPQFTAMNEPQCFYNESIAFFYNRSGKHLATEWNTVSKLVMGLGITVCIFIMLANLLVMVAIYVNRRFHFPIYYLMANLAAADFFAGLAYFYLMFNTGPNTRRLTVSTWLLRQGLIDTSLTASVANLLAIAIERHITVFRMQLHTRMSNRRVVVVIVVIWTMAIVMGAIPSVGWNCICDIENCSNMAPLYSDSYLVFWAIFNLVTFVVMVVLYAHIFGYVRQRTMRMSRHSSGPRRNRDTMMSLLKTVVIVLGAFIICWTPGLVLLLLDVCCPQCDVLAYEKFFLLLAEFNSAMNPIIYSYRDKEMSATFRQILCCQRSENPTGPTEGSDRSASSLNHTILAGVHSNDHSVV

| IC50 (LPAR1) | Emax (LPAR1) | IC50 [1] | Structure (SMILES) | Emax [1] |
| --- | --- | --- | --- | --- |
| > 30000 nM | 46% | 3720 nM | COc1cc(C(=O)N(CCCc2ccccc2)CCC(=O)O)cc(OC)c1C [Example 67, N-(3,5-dimethoxy-4-methylbenzoyl)-N-(3-phenylpropyl)-beta-alanine] | 57% |
| 84 nM | 64% | > 8190 nM | CCOc1cc(OCC)cc(C(=O)N(CCCCC(=O)O)CCCc2ccc(C)o2)c1 [Example 176, 5-{(3,5-diethoxybenzoyl)[3-(5-methylfuran-2-yl)propyl]amino}pentanoic Acid] | 53% |
| > 30000 nM | 39% | > 10000 nM | COc1cccc(C2(C(=O)N(CCCCC(=O)O)CCCc3ccccc3)CC2)c1 [Example 82, 5-{[1-(3-methoxyphenyl)cyclopropane-1-carbonyl](3-phenylpropyl)amino}pentanoic Acid] | 2% |
| 68 nM | 75% | 5460 nM | COc1ccc(C2(C(=O)N(CCCCC(=O)O)CCCc3ccccc3)CC2)c(F)c1 [Example 103, 5-{[1-(2-fluoro-4-methoxyphenyl)cyclopropane-1-carbonyl](3-phenylpropyl)amino}pentanoic Acid] | 62% |
| 19900 nM | 62% | > 10000 nM | COc1cc(C(=O)N(CCCCC(=O)O)CCCCc2ccccc2)cc(OC)c1C [Example 96, 5-[(3,5-dimethoxy-4-methylbenzoyl)(4-phenylbutyl)amino]pentanoic Acid] | 52% |
| 78 nM | 85% | 3590 nM | COc1ccc(C2(C(=O)N(CCCCC(=O)O)CCCc3ccccc3)CC2)cc1Cl [Example 107, 5-{[1-(3-chloro-4-methoxyphenyl)cyclopropane-1-carbonyl](3-phenylpropyl)amino}pentanoic Acid] | 71% |
| 81 nM | 83% | 1350 nM | COc1cc(C(=O)N(CCCCC(=O)NS(=O)(=O)c2ccncc2)CCCc2ccccc2)cc(OC)c1C [Example 143, 3,5-dimethoxy-4-methyl-N-{5-oxo-5-[(pyridine-4-sulfonyl)amino]pentyl}-N-(3-phenylpropyl)benzamide] | 66% |
| 85 nM | 88% | 6170 nM | COc1ccc(C2(C(=O)N(CCCCC(=O)O)CCCc3ccccc3)CC(=O)C2)cc1 [Example 152, 5-{[1-(4-methoxyphenyl)-3-oxocyclobutane-1-carbonyl](3-phenylpropyl)amino}pentanoic Acid] | 64% |
| 43 nM | 96% | 819 nM | CCCCC(CCCN(CCCc1ccccc1)C(=O)c1cc(OC)c(C)c(OC)c1)C(=O)O (stereo not drawn) [Example 93, 2-{3-[(3,5-dimethoxy-4-methylbenzoyl)(3-phenylpropyl)amino]propyl}hexanoic Acid] | 84% |
| 45 nM | 73% | 2030 nM | COc1cc(C(=O)N(CCCCC(=O)NS(=O)(=O)C(F)(F)F)CCCc2ccccc2)cc(OC)c1C [Example 150, 3,5-dimethoxy-4-methyl-N-{5-oxo-5-[(trifluoromethanesulfonyl)amino]pentyl}-N-(3-phenylpropyl)benzamide] | 67% |
| 116 nM | 97% | 36 nM | CCCCC(C)(CCCN(CCCc1ccccc1)C(=O)c1cc(OC)c(C)c(OC)c1)C(=O)O (stereo not drawn) [Example 97, 2-{3-[(3,5-dimethoxy-4-methylbenzoyl)(3-phenylpropyl)amino]propyl}-2-methylhexanoic Acid] | 94% |
| > 10000 nM | 47% | > 10000 nM | COc1cc(OC)cc(C(=O)N(CCCCC(=O)O)CCCc2ccc(F)cc2)c1 [Example 148, 5-{(3,5-dimethoxybenzoyl)[3-(4-fluorophenyl)propyl]amino}pentanoic Acid] | 40% |
